According to paper doi:10.1101/2024.12.03.626577v1 (biorxiv, 2024):

test system: PANC-1; assay: cells; settings: Homo sapiens, PANC-1, 72 h, read-out: PANC-1 IC50 (µM)

| SMILES | IC50 |
| --- | --- |
| CSc1ccccc1-c1ccc(C(=O)N(C)CC2CCCCC2(F)F)c(S(C)(=O)=O)c1 (centres unmarked) [2a, Compound 2a] | 0.329 µM |
| CN(CC1CCCCC1)C(=O)c1ccc(-c2ccccc2F)cc1S(C)(=O)=O [2b, Compound 2b] | 5.14 µM |
| Cc1ccccc1-c1ccc(C(=O)N(C)CC2CCCCC2)c(S(C)(=O)=O)c1 [2c] | 1.62 µM |
| COc1cnccc1-c1ccc(C(=O)N(C)CC2CCCCC2)c(S(C)(=O)=O)c1 [2d] | 0.791 µM |
| CSc1cc(F)ccc1-c1ccc(C(=O)N(C)CC2CCCCC2)c(S(C)(=O)=O)c1 [2e] | 0.094 µM |

molecular target: T1, TRIM21^PRY-SPRY (287-465aa) (Homo sapiens, UniProt P19474); assay: SPR; format: binding; settings: not given
T1 sequence (P19474 287-465): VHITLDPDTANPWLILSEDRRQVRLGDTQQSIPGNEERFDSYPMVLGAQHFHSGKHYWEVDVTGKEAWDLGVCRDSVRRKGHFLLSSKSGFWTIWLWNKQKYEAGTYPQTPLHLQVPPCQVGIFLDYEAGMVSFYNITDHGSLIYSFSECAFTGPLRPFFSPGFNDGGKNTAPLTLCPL

| SMILES | Kd |
| --- | --- |
| CSc1ccccc1-c1ccc(C(=O)N(C)CC2(F)CCCCC2)c(S(C)(=O)=O)c1 [compound 1, Compound 1] | 193 nM |

molecular target: T1, TRIM21^PRY-SPRY (287-465aa); assay: SPR; format: binding; settings: not given; remark: another data set of the same source

| SMILES | Kd |
| --- | --- |
| CSc1ccccc1-c1ccc(C(=O)N(C)CC2CCCCC2)c(S(C)(=O)=O)c1 [1a, Compound 1a] | 123 nM |
| CSc1ccccc1-c1ccc(C(=O)N(C)CC2CCOCC2)c(S(C)(=O)=O)c1 [1b, Compound 1b] | 29 nM |
| CSc1ccccc1-c1ccc(C(=O)N(C)Cc2cc[nH]c2)c(S(C)(=O)=O)c1 [1c, Compound 1c] | 17 nM |
| CSc1ccccc1-c1ccc(C(=O)N(C)Cc2ccon2)c(S(C)(=O)=O)c1 [1d, Compound 1d] | 171 nM |
| CCc1ccccc1CN(C)C(=O)c1ccc(-c2ccccc2SC)cc1S(C)(=O)=O [1e, Compound 1e] | 581 nM |
| CSc1ccccc1-c1ccc(C(=O)N(C)CC2CCOC2)c(S(C)(=O)=O)c1 (centres unmarked) [1f, Compound 1f] | 350 nM |
| CSc1ccccc1-c1ccc(C(=O)N(C)Cc2cc[nH]c(=O)c2)c(S(C)(=O)=O)c1 [1g, Compound 1g] | 11 nM |
| CSc1ccccc1-c1ccc(C(=O)N(C)CC2CCCCC2(F)F)c(S(C)(=O)=O)c1 (centres unmarked) [2a, Compound 2a] | 234 nM |
| CN(CC1CCCCC1)C(=O)c1ccc(-c2ccccc2F)cc1S(C)(=O)=O [2b, Compound 2b] | 2150 nM |
| Cc1ccccc1-c1ccc(C(=O)N(C)CC2CCCCC2)c(S(C)(=O)=O)c1 [2c, Compound 2c] | 610 nM |
| COc1cnccc1-c1ccc(C(=O)N(C)CC2CCCCC2)c(S(C)(=O)=O)c1 [2d, Compound 2d] | 1570 nM |
